# Measurements reported in PubChem BioAssay (NCI).
#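 Values below derive from 48-hour exposures of cells grown in 96-well plates, with endpoints linearly interpolated between the two concentrations bracketing the appropriate inhibition level. Abbreviation: GI50, concentration required for 50% inhibition of growth. At the TGI there is no net growth.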
# Assays:
# Experiment in all cases: inhibition of tumour cell growth, NCI panel, 48 h
# [1] = test system: SK-MEL-5 melanoma
# [2] = test system: NCI-H522 lung
# [3] = test system: HL-60(TB) leukemia
# [4] = test system: A549 NSCLC
# [5] = test system: A498 renal
# [6] = test system: HS 578T breast
# [7] = test system: HOP-92 NSCLC
# [8] = test system: OVCAR-4 ovarian
# [9] = test system: SK-OV-3 ovarian
# [10] = test system: RXF 393 renal
# [11] = test system: U251 CNS
# [12] = test system: HCT-116 colon
# [13] = test system: CAKI-1 renal
# [14] = test system: MOLT-4 leukemia
# [15] = test system: K-562 leukemia
# [16] = test system: UACC-257 melanoma
# [17] = test system: UO-31 renal
# [18] = test system: SN12C renal
# [19] = test system: SNB-75 CNS
# [20] = test system: BT-549 breast
# [21] = test system: MDA-MB-231 breast
# [22] = test system: PC-3 prostate
# [23] = test system: SR leukemia
# [24] = test system: OVCAR-3 ovarian
# [25] = test system: 786-0 renal
# [26] = test system: NCI-H226 lung
# [27] = test system: UACC-62 melanoma
# [28] = test system: SF-268 CNS
# [29] = test system: LOX IMVI melanoma
# [30] = test system: OVCAR-5 ovarian
# [31] = test system: DU-145 prostate
# [32] = test system: IGROV1 ovarian
# [33] = test system: NCI/ADR-RES ovarian
# [34] = test system: M14 melanoma
# [35] = test system: SW-620 colon
# [36] = test system: TK-10 renal
# [37] = test system: NCI-H460 lung
# [38] = test system: HT29 colon
# [39] = test system: SF-539 CNS
# [40] = test system: CCRF-CEM leukemia
# [41] = test system: SNB-19 CNS
# [42] = test system: RPMI-8226 leukemia
# [43] = test system: MALME-3M melanoma
# [44] = test system: T-47D breast
# [45] = test system: HOP-62 NSCLC
# [46] = test system: COLO 205 colon
# [47] = test system: MCF7 breast
# [48] = test system: OVCAR-8 ovarian
# [49] = test system: EKVX NSCLC
# [50] = test system: KM12 colon
# [51] = test system: HCC-2998 colon
# [52] = test system: HCT-15 colon
# [53] = test system: SF-295 CNS
# [54] = test system: SK-MEL-28 melanoma
# [55] = test system: MDA-MB-435
# [56] = test system: NCI-H23 lung
# [57] = test system: ACHN renal
# [58] = test system: SK-MEL-2 melanoma
compound,measurement,setting,value
Cc1ccc(-c2nc([P+](c3ccccc3)(c3ccccc3)c3ccccc3)c(N3CCOCC3)o2)cc1,GI50,[1],314 nM
same,TGI,[1],1030 nM
same,GI50,[2],371 nM
same,TGI,[2],7390 nM
same,GI50,[3],246 nM
same,TGI,[3],738 nM
same,GI50,[4],500 nM
same,TGI,[4],14000 nM
same,GI50,[5],881 nM
same,TGI,[5],4500 nM
same,GI50,[6],578 nM
same,TGI,[6],9640 nM
same,GI50,[7],300 nM
same,TGI,[7],2440 nM
same,GI50,[8],281 nM
same,TGI,[8],3030 nM
same,GI50,[9],381 nM
same,TGI,[9],4320 nM
same,GI50,[10],706 nM
same,TGI,[10],4250 nM
same,GI50,[11],313 nM
same,TGI,[11],11900 nM
same,GI50,[12],356 nM
same,TGI,[12],10800 nM
same,GI50,[13],5580 nM
same,TGI,[13],17100 nM
same,GI50,[14],499 nM
same,TGI,[14],3270 nM
same,GI50,[15],331 nM
same,TGI,[15],4870 nM
same,GI50,[16],341 nM
same,TGI,[16],3420 nM
same,GI50,[17],2230 nM
same,TGI,[17],7300 nM
same,GI50,[18],335 nM
same,TGI,[18],4160 nM
same,GI50,[19],194 nM
same,TGI,[19],1110 nM
same,GI50,[20],381 nM
same,TGI,[20],5140 nM
same,GI50,[21],399 nM
same,TGI,[21],4930 nM
same,GI50,[22],315 nM
same,TGI,[22],3720 nM
same,GI50,[23],418 nM
same,TGI,[23],5330 nM
same,GI50,[24],362 nM
same,TGI,[24],3690 nM
same,GI50,[25],2540 nM
same,TGI,[25],12700 nM
same,GI50,[26],724 nM
same,TGI,[26],8030 nM
same,GI50,[27],350 nM
same,TGI,[27],1450 nM
same,GI50,[28],389 nM
same,TGI,[28],11000 nM
same,GI50,[29],565 nM
same,TGI,[29],2440 nM
same,GI50,[30],846 nM
same,TGI,[30],11900 nM
same,GI50,[31],472 nM
same,TGI,[31],10900 nM
same,GI50,[32],419 nM
same,TGI,[32],4110 nM
same,GI50,[33],21900 nM
same,TGI,[33],> 100000 nM
same,GI50,[34],543 nM
same,TGI,[34],10400 nM
same,GI50,[35],467 nM
same,TGI,[35],11800 nM
same,GI50,[36],1440 nM
same,TGI,[36],9150 nM
same,GI50,[37],468 nM
same,TGI,[37],10800 nM
same,GI50,[38],357 nM
same,TGI,[38],11000 nM
same,GI50,[39],787 nM
same,TGI,[39],10100 nM
same,GI50,[40],588 nM
same,TGI,[40],11300 nM
same,GI50,[41],333 nM
same,TGI,[41],4910 nM
same,GI50,[42],251 nM
same,TGI,[42],1160 nM
same,GI50,[43],378 nM
same,TGI,[43],3110 nM
same,GI50,[44],230 nM
same,TGI,[44],1830 nM
same,GI50,[45],830 nM
same,TGI,[45],6610 nM
same,GI50,[46],343 nM
same,TGI,[46],1680 nM
same,GI50,[47],316 nM
same,TGI,[47],2180 nM
same,GI50,[48],505 nM
same,TGI,[48],9500 nM
same,GI50,[49],1080 nM
same,TGI,[49],9990 nM
same,GI50,[50],368 nM
same,TGI,[50],1820 nM
same,GI50,[51],517 nM
same,TGI,[51],6870 nM
same,GI50,[52],3090 nM
same,TGI,[52],12100 nM
same,GI50,[53],1120 nM
same,TGI,[53],4350 nM
same,GI50,[54],515 nM
same,TGI,[54],9180 nM
same,GI50,[55],351 nM
same,TGI,[55],1810 nM
same,GI50,[56],456 nM
same,TGI,[56],7450 nM
same,GI50,[57],2320 nM
same,TGI,[57],7530 nM
same,GI50,[58],559 nM
same,TGI,[58],2760 nM
